Measured values reported in US20240415914A1, “Water Dispersible Cannabinoid Compositions” (priority 2021, published 2024).

Assay: Stability of cannabinoid and Vitamin E components of Beverage 1 (AB White) stored at 8° C. and 21-25° C., LCMSMS over 570 days
Type: physicochemical
Conditions: for Stability in AB White, 8° C. (content by LCMSMS): beverage stored at 8° C.; for Stability in AB White, 21-25° C. (content by LCMSMS): beverage stored at 21-25° C.
Experimental: The LCMSMS was calibrated for 0-1000 ng/ml cannabinoids with the same resin material used in the preparation of the concentrates. At each time period, 100 ml of beverage was diluted with 10 ml of methanol and injected into the LCMSMS for analysis.

CCCCCc1cc(O)c2c(c1)OC(C)(CCC=C(C)C)C=C2 (centres unmarked) [CBC, cannabichromene]
Stability in AB White, 8° C. (content by LCMSMS) (day 0): 0.320 µg/mL
Stability in AB White, 8° C. (content by LCMSMS) (day 1): 0.314 µg/mL
Stability in AB White, 8° C. (content by LCMSMS) (day 2): 0.315 µg/mL
Stability in AB White, 8° C. (content by LCMSMS) (day 3): 0.322 µg/mL
Stability in AB White, 8° C. (content by LCMSMS) (day 5): 0.322 µg/mL
Stability in AB White, 8° C. (content by LCMSMS) (day 8): 0.318 µg/mL
Stability in AB White, 8° C. (content by LCMSMS) (day 9): 0.319 µg/mL
Stability in AB White, 8° C. (content by LCMSMS) (day 10): 0.314 µg/mL
Stability in AB White, 8° C. (content by LCMSMS) (day 11): 0.314 µg/mL
Stability in AB White, 8° C. (content by LCMSMS) (day 12): 0.319 µg/mL
Stability in AB White, 8° C. (content by LCMSMS) (day 15): 0.317 µg/mL
Stability in AB White, 8° C. (content by LCMSMS) (day 16): 0.320 µg/mL
Stability in AB White, 8° C. (content by LCMSMS) (day 17): 0.315 µg/mL
Stability in AB White, 8° C. (content by LCMSMS) (day 18): 0.312 µg/mL
Stability in AB White, 8° C. (content by LCMSMS) (day 19): 0.317 µg/mL
Stability in AB White, 8° C. (content by LCMSMS) (day 22): 0.315 µg/mL
Stability in AB White, 8° C. (content by LCMSMS) (day 23): 0.321 µg/mL
Stability in AB White, 8° C. (content by LCMSMS) (day 24): 0.316 µg/mL
Stability in AB White, 8° C. (content by LCMSMS) (day 25): 0.310 µg/mL
Stability in AB White, 8° C. (content by LCMSMS) (day 26): 0.316 µg/mL
Stability in AB White, 8° C. (content by LCMSMS) (day 29): 0.321 µg/mL
Stability in AB White, 8° C. (content by LCMSMS) (day 30): 0.317 µg/mL
Stability in AB White, 8° C. (content by LCMSMS) (day 60): 0.316 µg/mL
Stability in AB White, 8° C. (content by LCMSMS) (day 90): 0.318 µg/mL
Stability in AB White, 8° C. (content by LCMSMS) (day 120): 0.311 µg/mL
Stability in AB White, 8° C. (content by LCMSMS) (day 150): 0.314 µg/mL
Stability in AB White, 8° C. (content by LCMSMS) (day 180): 0.319 µg/mL
Stability in AB White, 8° C. (content by LCMSMS) (day 210): 0.309 µg/mL
Stability in AB White, 8° C. (content by LCMSMS) (day 240): 0.316 µg/mL
Stability in AB White, 8° C. (content by LCMSMS) (day 270): 0.316 µg/mL
Stability in AB White, 8° C. (content by LCMSMS) (day 300): 0.313 µg/mL
Stability in AB White, 8° C. (content by LCMSMS) (day 330): 0.316 µg/mL
Stability in AB White, 8° C. (content by LCMSMS) (day 360): 0.306 µg/mL
Stability in AB White, 8° C. (content by LCMSMS) (day 390): 0.310 µg/mL
Stability in AB White, 8° C. (content by LCMSMS) (day 420): 0.307 µg/mL
Stability in AB White, 8° C. (content by LCMSMS) (day 450): 0.312 µg/mL
Stability in AB White, 8° C. (content by LCMSMS) (day 480): 0.305 µg/mL
Stability in AB White, 8° C. (content by LCMSMS) (day 510): 0.295 µg/mL
Stability in AB White, 8° C. (content by LCMSMS) (day 540): 0.299 µg/mL
Stability in AB White, 8° C. (content by LCMSMS) (day 570): 0.293 µg/mL
Stability in AB White, 21-25° C. (content by LCMSMS) (day 0): 0.320 µg/mL
Stability in AB White, 21-25° C. (content by LCMSMS) (day 1): 0.313 µg/mL
Stability in AB White, 21-25° C. (content by LCMSMS) (day 2): 0.318 µg/mL
Stability in AB White, 21-25° C. (content by LCMSMS) (day 3): 0.311 µg/mL
Stability in AB White, 21-25° C. (content by LCMSMS) (day 5): 0.323 µg/mL
Stability in AB White, 21-25° C. (content by LCMSMS) (day 8): 0.319 µg/mL
Stability in AB White, 21-25° C. (content by LCMSMS) (day 9): 0.307 µg/mL
Stability in AB White, 21-25° C. (content by LCMSMS) (day 10): 0.312 µg/mL
Stability in AB White, 21-25° C. (content by LCMSMS) (day 11): 0.311 µg/mL
Stability in AB White, 21-25° C. (content by LCMSMS) (day 12): 0.316 µg/mL
Stability in AB White, 21-25° C. (content by LCMSMS) (day 15): 0.311 µg/mL
Stability in AB White, 21-25° C. (content by LCMSMS) (day 16): 0.321 µg/mL
Stability in AB White, 21-25° C. (content by LCMSMS) (day 17): 0.323 µg/mL
Stability in AB White, 21-25° C. (content by LCMSMS) (day 18): 0.313 µg/mL
Stability in AB White, 21-25° C. (content by LCMSMS) (day 19): 0.316 µg/mL
Stability in AB White, 21-25° C. (content by LCMSMS) (day 22): 0.322 µg/mL
Stability in AB White, 21-25° C. (content by LCMSMS) (day 23): 0.316 µg/mL
Stability in AB White, 21-25° C. (content by LCMSMS) (day 24): 0.308 µg/mL
Stability in AB White, 21-25° C. (content by LCMSMS) (day 25): 0.310 µg/mL
Stability in AB White, 21-25° C. (content by LCMSMS) (day 26): 0.308 µg/mL
Stability in AB White, 21-25° C. (content by LCMSMS) (day 29): 0.317 µg/mL
Stability in AB White, 21-25° C. (content by LCMSMS) (day 30): 0.317 µg/mL
Stability in AB White, 21-25° C. (content by LCMSMS) (day 60): 0.306 µg/mL
Stability in AB White, 21-25° C. (content by LCMSMS) (day 90): 0.305 µg/mL
Stability in AB White, 21-25° C. (content by LCMSMS) (day 120): 0.318 µg/mL
Stability in AB White, 21-25° C. (content by LCMSMS) (day 150): 0.312 µg/mL
Stability in AB White, 21-25° C. (content by LCMSMS) (day 180): 0.315 µg/mL
Stability in AB White, 21-25° C. (content by LCMSMS) (day 210): 0.307 µg/mL
Stability in AB White, 21-25° C. (content by LCMSMS) (day 240): 0.304 µg/mL
Stability in AB White, 21-25° C. (content by LCMSMS) (day 270): 0.316 µg/mL
Stability in AB White, 21-25° C. (content by LCMSMS) (day 300): 0.312 µg/mL
Stability in AB White, 21-25° C. (content by LCMSMS) (day 330): 0.312 µg/mL
Stability in AB White, 21-25° C. (content by LCMSMS) (day 360): 0.310 µg/mL
Stability in AB White, 21-25° C. (content by LCMSMS) (day 390): 0.303 µg/mL
Stability in AB White, 21-25° C. (content by LCMSMS) (day 420): 0.312 µg/mL
Stability in AB White, 21-25° C. (content by LCMSMS) (day 450): 0.310 µg/mL
Stability in AB White, 21-25° C. (content by LCMSMS) (day 480): 0.294 µg/mL
Stability in AB White, 21-25° C. (content by LCMSMS) (day 510): 0.293 µg/mL
Stability in AB White, 21-25° C. (content by LCMSMS) (day 540): 0.294 µg/mL
Stability in AB White, 21-25° C. (content by LCMSMS) (day 570): 0.295 µg/mL
